In patent US20140242093A1, “METHODS AND COMPOSITIONS FOR MODULATING THE INNATE IMMUNE RESPONSE AND/OR MYOGENESIS IN A MAMMALIAN SUBJECT” (FRED HUTCHINSON CANCER RESEARCH CENTER, priority 2011, published 2014):

Test system: control human primary myoblasts
Test: Expression microarray of primary myoblasts transduced with lentivirus carrying DUX4-fl, DUX4-s or GFP
Procedure: Primary human myoblasts were collected and cultured as previously described (Snider et al., 2010). Primary myoblasts were maintained at or below 70% confluency for proliferation. For differentiation, cells were allowed to reach 95-100% confluency in growth medium. Once confluency was reached, the cells were changed to differentiation medium (F10 media supplemented with 1% horse serum, 10 μg/mL insulin, and 10 μg/mL transferrin, penicillin/streptomycin) and maintained for 4 days. Human RD cells were grown in DMEM in 10% bovine calf serum (Hyclone) and penicillin/streptomycin. The primary myoblasts were transduced with lentivirus carrying DUX-fl, DUX4- or GFP (MOI=15).
Expression microarrays were performed on the transduced cells at 24 hours after transduction as follows. […] Samples were analyzed by Illumina Human Whole Genome microarrays. Probe intensities were corrected, normalized, and summarized by the Lumi package of Bioconductor (Du et al., 2008). Differentially expressed genes were identified by the LIMMA package of Bioconductor (Wettenhall and Smyth, 2004). Gene set enrichment analysis (GSEA) was performed using the Bioconductor GOstats package (Falcon and Gentleman, 2007).

DUX4-fl: full-length DUX4 protein (SEQ ID NO:110), expressed from lentiviral or pCS2 vectors or in vitro translated
CHI3L2 expression fc (Refseq NM_004000.2, cultured human skeletal muscle): −2.705
IRF7 expression fc (Refseq NM_004029.2, cultured human skeletal muscle): −1.959
CRY1 expression fc (Refseq NM_004075.2): 2.342
PSPN expression fc (Refseq NM_004158.2): 2.203
BEST1 fc (Refseq NM_004183.2): −1.101
UBE2L6 expression fc (Refseq NM_004223.3, cultured human skeletal muscle): −3.085
fc of STK17B (expression array) (Refseq NM_004226.2): −0.05995
fc of SLC9A3R1 (expression array) (Refseq NM_004252.2): −1.036
BST2 expression fc (Refseq NM_004335.2, cultured human skeletal muscle): −4.248
CREB1 fc (Refseq NM_004379.2): −1.133
fc of HOXB7 (expression array) (Refseq NM_004502.3): −1.037
SP110 expression fc (Refseq NM_004510.2, cultured human skeletal muscle): −2.941
PSPH fc (Refseq NM_004577.3): −1.164
XPC expression fc (Refseq NM_004628.3, cultured human skeletal muscle): −2.458
PABPN1 expression fc (Refseq NM_004643.1): 2.567
MAP3K6 fc (Refseq NM_004672.3): −1.074
fc of SLC16A5 (expression array) (Refseq NM_004695.2): −1.025
fc of SFRS2IP (expression array) (Refseq NM_004719.2): −0.0565
fc of ARHGEF2 (expression array) (Refseq NM_004723.2): −1.057
TIAF1 fc (Refseq NM_004740.3): −1.123
NOLC1 expression fc (Refseq NM_004741.1): 2.439
SLIT2 expression fc (Refseq NM_004787.1): 2.369
LPXN fc (Refseq NM_004811.1): −1.124
PEX16 fc (Refseq NM_004813.1): −1.101
C9orf61 expression fc (Refseq NM_004816.2): 2.614
MED26 expression fc (Refseq NM_004831.3): 2.1
fc of GSTO1 (expression array) (Refseq NM_004832.1): −1.03
fc of LITAF (expression array) (Refseq NM_004862.2): −0.5892
fc of SCAMPI (expression array) (Refseq NM_004866.4): −0.4749
fc of APBA3 (expression array) (Refseq NM_004886.3): −1.032
SERPINI1 expression fc (Refseq NM_005025.3): 1.809
TRIM25 expression fc (Refseq NM_005082.4, cultured human skeletal muscle): −2.513
SFRS17A expression fc (Refseq NM_005088.2): 2.456
ISG15 expression fc (Refseq NM_005101.1, cultured human skeletal muscle): −4.311
MVP fc (Refseq NM_005115.3): −1.178
MED13 expression fc (Refseq NM_005121.2): 1.817
fc of REC8 (expression array) (Refseq NM_005132.2): −1.007
ATP6V0A1 fc (Refseq NM_005177.3): −1.152
CEBPB expression fc (Refseq NM_005194.2, cultured human skeletal muscle): −2.441
ETS1 fc (Refseq NM_005238.2): −1.067
FAT1 fc (Refseq NM_005245.3): −1.138
GPR37 expression fc (Refseq NM_005302.2): 2.121
H1F0 expression fc (Refseq NM_005318.2, cultured human skeletal muscle): −2.434
HSPA1A expression fc (Refseq NM_005345.4): 3.54
HSPA1B expression fc (Refseq NM_005346.3): 3.402
NEFM expression fc (Refseq NM_005382.1): 2.925
SHMT2 fc (Refseq NM_005412.4): −1.089
STAT2 expression fc (Refseq NM_005419.2, cultured human skeletal muscle): −2.69
EOMES expression fc (Refseq NM_005442.2): 2.897
TOM1 fc (Refseq NM_005488.1): −1.129
HLA-B expression fc (Refseq NM_005514.5, cultured human skeletal muscle): −2.752
HLA-E fc (Refseq NM_005516.4): −1.11
IFI16 expression fc (Refseq NM_005531.1, cultured human skeletal muscle): −2.008
IFI27 expression fc (Refseq NM_005532.3, cultured human skeletal muscle): −6.527
IFI35 expression fc (Refseq NM_005533.2, cultured human skeletal muscle): −3.847
IRS1 fc (Refseq NM_005544.1): −1.157
KLC1 expression fc (Refseq NM_005552.4): 1.967
RGS4 expression fc (Refseq NM_005613.3): 1.951
SGK expression fc (Refseq NM_005627.2): 2.04
TAF4B expression fc (Refseq NM_005640.1): 1.87
fc of TERF2 (expression array) (Refseq NM_005652.2): −1.02
fc of REEP5 (expression array) (Refseq NM_005669.4): −0.3556
fc of HIPK3 (expression array) (Refseq NM_005734.3): −0.2982
ARIH1 expression fc (Refseq NM_005744.2): 2.243
fc of NAMPT (expression array) (Refseq NM_005746.2): −0.5767
LHFPL2 fc (Refseq NM_005779.1): −1.13
STX6 expression fc (Refseq NM_005819.4): 2.053
fc of RCAN2 (expression array) (Refseq NM_005822.2): −0.5968
MFGE8 fc (Refseq NM_005928.1): −1.15
MT1X expression fc (Refseq NM_005952.2, cultured human skeletal muscle): −2.444
SNAI1 expression fc (Refseq NM_005985.2): 1.943
RBM12 expression fc (Refseq NM_006047.4): 2.013
TRIM22 expression fc (Refseq NM_006074.3, cultured human skeletal muscle): −2.581
CBARA1 expression fc (Refseq NM_006077.2): 2.064
TUBB2C expression fc (Refseq NM_006088.5): 1.948
LASP1 fc (Refseq NM_006148.1): −1.152
NFE2L2 fc (Refseq NM_006164.2): −1.093
OAS3 expression fc (Refseq NM_006187.2, cultured human skeletal muscle): −4.029
fc of PDGFRL (expression array) (Refseq NM_006207.1): −0.6227
PSME1 fc (Refseq NM_006263.2): −1.138
STK3 expression fc (Refseq NM_006281.2): 2.186
